The source of these data is PubChem BioAssay AID488931 (Broad Institute, 2010).

The assay can be described thus: INS-1E mitochondrial potential rescue under cytokines – cell-based, JC-1 fluorescence ratio, dry powder, dose response (AID 488931). Particulars: INS-1E cytokine-induced mitochondrial depolarization, JC-1 ratio, 48 h; at 19.5 µM (top of the series).

Activity calls are given as the source filed them.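 How the source made its calls: active means rising protection curve whose AC50 sits at or below ten times the top dose tested for that sample; inconclusive means flat response between 30 and 70 percent, or poor fit; inactive means the rest.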

Take `Cc1noc(C)c1NC(=O)N(C)C[C@@H]1Oc2c(NC(=O)Nc3cccc4ccccc34)cccc2C(=O)N([C@@H](C)CO)C[C@H]1C`: the protection from depolarization is 10.5% (inactive).

As for `COc1ccc(S(=O)(=O)N(C)C[C@@H]2Oc3c(NS(=O)(=O)c4ccc(Cl)cc4)cccc3C(=O)N([C@@H](C)CO)C[C@H]2C)cc1`, the protection from depolarization was 3.44% (inactive).

For the compound `COc1ccc(NC(=O)Nc2cccc3c2O[C@@H](CN(C)S(=O)(=O)c2ccc(OC)cc2)[C@H](C)CN([C@@H](C)CO)C3=O)cc1`, the protection from depolarization was -0.254% (inactive).

As for `C[C@@H]1CN([C@@H](C)CO)C(=O)c2cccc(NC(=O)Nc3cccc4ccccc34)c2O[C@H]1CN(C)S(=O)(=O)c1ccccc1F`, the protection from depolarization is -1.29% (inactive).

For the compound `C[C@@H]1CN([C@@H](C)CO)C(=O)c2cccc(NC(=O)Nc3ccccc3)c2O[C@H]1CN(C)S(=O)(=O)c1ccc(F)cc1`, the protection from depolarization is 11.5% (inactive).

As for `C[C@@H]1CN([C@@H](C)CO)C(=O)c2cccc(NC(=O)Nc3cccc4ccccc34)c2O[C@H]1CN(C)C(=O)Nc1ccc(C(F)(F)F)cc1`, the protection from depolarization is -10.5% (inactive).

Regarding `COc1ccc(S(=O)(=O)N(C)C[C@@H]2Oc3c(NS(=O)(=O)c4cn(C)cn4)cccc3C(=O)N([C@@H](C)CO)C[C@H]2C)cc1`, the protection from depolarization is 1.64% (inactive).

On to `COc1ccccc1S(=O)(=O)N(C)C[C@@H]1Oc2c(NC(=O)Nc3cccc4ccccc34)cccc2C(=O)N([C@@H](C)CO)C[C@H]1C`, for which the protection from depolarization was 4.59% (inactive).

For `C[C@@H]1CN([C@@H](C)CO)C(=O)c2cccc(NC(=O)Nc3cccc4ccccc34)c2O[C@H]1CN(C)S(=O)(=O)c1ccc2c(c1)OCCO2`, the protection from depolarization is 19.2% (inactive).

As to `COc1ccc(S(=O)(=O)N(C)C[C@@H]2Oc3c(NC(=O)NC4CCCCC4)cccc3C(=O)N([C@@H](C)CO)C[C@H]2C)cc1`, the protection from depolarization is 16.4% (inactive).

With `COc1ccc(S(=O)(=O)N(C)C[C@@H]2Oc3c(NS(=O)(=O)c4ccc(C)cc4)cccc3C(=O)N([C@@H](C)CO)C[C@H]2C)cc1`, the protection from depolarization is 2.95% (inactive).

With `C[C@@H]1CN([C@@H](C)CO)C(=O)c2cccc(NC(=O)Nc3cccc4ccccc34)c2O[C@H]1CN(C)CC1CC1`, the protection from depolarization was 9.67% (inactive).

With `COc1ccc(NC(=O)N(C)C[C@@H]2Oc3c(NC(=O)Nc4cccc5ccccc45)cccc3C(=O)N([C@@H](C)CO)C[C@H]2C)cc1`, the protection from depolarization was -6.82% (inactive).

Take `C[C@@H]1CN([C@@H](C)CO)C(=O)c2cccc(NC(=O)Nc3cccc4ccccc34)c2O[C@H]1CN(C)S(=O)(=O)c1ccc2c(c1)OCO2`: the protection from depolarization is 14.5% (inactive).

For the compound `COc1ccc(S(=O)(=O)N(C)C[C@@H]2Oc3c(NS(=O)(=O)c4ccc(F)cc4)cccc3C(=O)N([C@@H](C)CO)C[C@H]2C)cc1`, the protection from depolarization is 2.07% (inactive).

Take `COc1ccc(S(=O)(=O)N(C)C[C@@H]2Oc3c(NS(C)(=O)=O)cccc3C(=O)N([C@@H](C)CO)C[C@H]2C)cc1`: the protection from depolarization was -3.87% (inactive).

On to `Cc1ccc(S(=O)(=O)N(C)C[C@@H]2Oc3c(NC(=O)Nc4ccc(F)cc4)cccc3C(=O)N([C@H](C)CO)C[C@H]2C)cc1`, for which the protection from depolarization was 15.8% (inactive).

With `C[C@@H]1CN([C@@H](C)CO)C(=O)c2cccc(NC(=O)Nc3cccc4ccccc34)c2O[C@H]1CN(C)S(=O)(=O)c1cccc(F)c1`, the protection from depolarization is -3.75% (inactive).

With `COc1ccc(S(=O)(=O)N(C)C[C@@H]2Oc3c(NC(=O)c4cc(C)nn4C)cccc3C(=O)N([C@@H](C)CO)C[C@H]2C)cc1`, the protection from depolarization is -6.67% (inactive).

Turning to `COc1ccc(S(=O)(=O)N(C)C[C@@H]2Oc3c(NC(=O)c4nc5ccccc5s4)cccc3C(=O)N([C@@H](C)CO)C[C@H]2C)cc1`, the protection from depolarization is -8.98% (inactive).

Consider `COc1ccc(S(=O)(=O)N(C)C[C@@H]2Oc3c(cccc3N(C)C)C(=O)N([C@@H](C)CO)C[C@H]2C)cc1`, for which the protection from depolarization was -3.81% (inactive).

Regarding `C[C@@H]1CN([C@@H](C)CO)C(=O)c2cccc(NC(=O)Nc3cccc4ccccc34)c2O[C@H]1CN(C)S(=O)(=O)c1cccs1`, the protection from depolarization was -8.53% (inactive).

In the case of `C[C@@H]1CN([C@@H](C)CO)C(=O)c2cccc(NC(=O)Nc3cccc4ccccc34)c2O[C@H]1CN(C)S(=O)(=O)c1ccc(OC(F)(F)F)cc1`, the protection from depolarization is -17.1% (inactive).

Consider `C[C@@H]1CN([C@@H](C)CO)C(=O)c2cccc(NC(=O)Nc3cccc4ccccc34)c2O[C@H]1CN(C)C(=O)NC1CCCCC1`, for which the protection from depolarization was -5.64% (inactive).

As to `COc1ccc(S(=O)(=O)N(C)C[C@@H]2Oc3c(NC(=O)Nc4ccc(F)cc4)cccc3C(=O)N([C@H](C)CO)C[C@H]2C)cc1`, the protection from depolarization was 10.6% (inactive).

As for `C[C@@H]1CN([C@@H](C)CO)C(=O)c2cccc(NC(=O)Nc3cccc4ccccc34)c2O[C@H]1CN(C)S(=O)(=O)c1ccc2c(c1)OCCCO2`, the protection from depolarization was 5.1% (inactive).

On to `C[C@@H]1CN([C@@H](C)CO)C(=O)c2cccc(NC(=O)Nc3cccc4ccccc34)c2O[C@H]1CN(C)C(=O)Nc1ccc2c(c1)OCO2`, for which the protection from depolarization was 0.627% (inactive).

Consider `COc1ccc(S(=O)(=O)N(C)C[C@@H]2Oc3c(NC(=O)Nc4cccc5ccccc45)cccc3C(=O)N([C@@H](C)CO)C[C@H]2C)c(OC)c1`, for which the protection from depolarization is 9.11% (inactive).

Take `COc1ccc(S(=O)(=O)N(C)C[C@@H]2Oc3c(NC(=O)Nc4ccc(F)cc4)cccc3C(=O)N([C@@H](C)CO)C[C@H]2C)cc1`: the protection from depolarization is 23.9% (inactive).

Consider `C[C@@H]1CN([C@@H](C)CO)C(=O)c2cccc(NC(=O)Nc3cccc4ccccc34)c2O[C@H]1CN(C)C(=O)Nc1ccccc1`, for which the protection from depolarization was -8.43% (inactive).

Turning to `COc1ccc(S(=O)(=O)N(C)C[C@@H]2Oc3c(NC(=O)Nc4cccc5ccccc45)cccc3C(=O)N([C@H](C)CO)C[C@@H]2C)cc1`, the protection from depolarization was 2.53% (inactive).

As to `C[C@@H]1CN([C@@H](C)CO)C(=O)c2cccc(NC(=O)Nc3cccc4ccccc34)c2O[C@H]1CN(C)C(=O)Nc1ccc(F)cc1`, the protection from depolarization was -0.192% (inactive).

As to `C[C@@H]1CN([C@@H](C)CO)C(=O)c2cccc(NC(=O)Nc3cccc4ccccc34)c2O[C@H]1CN(C)S(=O)(=O)c1ccccc1`, the protection from depolarization is 12.8% (inactive).

For the compound `C[C@@H]1CN([C@H](C)CO)C(=O)c2cccc(NC(=O)Nc3ccccc3)c2O[C@H]1CN(C)S(=O)(=O)c1ccc(F)cc1`, the protection from depolarization was 3.73% (inactive).

Turning to `C[C@@H]1CN([C@@H](C)CO)C(=O)c2cccc(NC(=O)Nc3cccc4ccccc34)c2O[C@H]1CN(C)S(=O)(=O)c1ccc(F)cc1`, the protection from depolarization is 6.22% (inactive).

Consider `C[C@H]1CN([C@@H](C)CO)C(=O)c2cccc(NC(=O)NC3CCCCC3)c2O[C@@H]1CN(C)S(C)(=O)=O`, for which the protection from depolarization was 4.62% (inactive).

On to `COc1ccc(S(=O)(=O)N(C)C[C@@H]2Oc3c(NC(=O)Nc4cccc5ccccc45)cccc3C(=O)N([C@@H](C)CO)C[C@H]2C)cc1`, for which the protection from depolarization was 10.7% (inactive).

Consider `COc1ccc(S(=O)(=O)N(C)C[C@@H]2Oc3c(NC(=O)c4ccc(-c5nccs5)cc4)cccc3C(=O)N([C@@H](C)CO)C[C@H]2C)cc1`, for which the protection from depolarization is 3.72% (inactive).

Consider `C[C@@H]1CN([C@@H](C)CO)C(=O)c2cccc(NC(=O)Nc3ccccc3)c2O[C@H]1CN(C)S(=O)(=O)c1ccc(Cl)cc1`, for which the protection from depolarization is 18.7% (inactive).

Turning to `C[C@@H]1CN([C@@H](C)CO)C(=O)c2cccc(NS(=O)(=O)c3ccccc3)c2O[C@H]1CN(C)Cc1ccc(C(F)(F)F)cc1`, the protection from depolarization was -0.0726% (inactive).

For the compound `COc1ccc(S(=O)(=O)N(C)C[C@@H]2Oc3c(NC(=O)c4cccc5ccccc45)cccc3C(=O)N([C@@H](C)CO)C[C@H]2C)cc1`, the protection from depolarization is 5.96% (inactive).

For `COc1ccc(S(=O)(=O)N(C)C[C@@H]2Oc3ccc(NC(=O)Nc4cccc5ccccc45)cc3C(=O)N([C@@H](C)CO)C[C@H]2C)cc1`, the protection from depolarization is -7.17% (inactive).

Take `COc1ccc(S(=O)(=O)N(C)C[C@@H]2Oc3c(NC(=O)c4cnccn4)cccc3C(=O)N([C@@H](C)CO)C[C@H]2C)cc1`: the protection from depolarization was -0.183% (inactive).

For the compound `COc1ccc(S(=O)(=O)N(C)C[C@@H]2Oc3c(NS(=O)(=O)c4ccccc4)cccc3C(=O)N([C@@H](C)CO)C[C@H]2C)cc1`, the protection from depolarization is 7.15% (inactive).

Turning to `C[C@@H]1CN([C@@H](C)CO)C(=O)c2cccc(NC(=O)Nc3cccc4ccccc34)c2O[C@H]1CN(C)S(=O)(=O)c1cn(C)cn1`, the protection from depolarization was -9.26% (inactive).

For the compound `Cc1ccc(S(=O)(=O)N(C)C[C@H]2Oc3c(NC(=O)Nc4cccc5ccccc45)cccc3C(=O)N([C@@H](C)CO)C[C@@H]2C)cc1`, the protection from depolarization was -8.26% (inactive).

For `C[C@@H]1CN([C@@H](C)CO)C(=O)c2cccc(NC(=O)Nc3cccc4ccccc34)c2O[C@H]1CN(C)S(=O)(=O)c1ccc2c(c1)oc(=O)n2C`, the protection from depolarization was 23.7% (inactive).

As to `COc1ccc(S(=O)(=O)N(C)C[C@H]2Oc3c(NC(=O)Nc4cccc5ccccc45)cccc3C(=O)N([C@H](C)CO)C[C@H]2C)cc1`, the protection from depolarization was 7.31% (inactive).

Consider `C[C@@H]1CN([C@H](C)CO)C(=O)c2cccc(NC(=O)Nc3ccccc3)c2O[C@H]1CN(C)S(=O)(=O)c1ccc(Cl)cc1`, for which the protection from depolarization was 27.7% (inactive).

Consider `COc1ccc(S(=O)(=O)N(C)C[C@@H]2Oc3c(NC(=O)Nc4ccc(C(F)(F)F)cc4)cccc3C(=O)N([C@@H](C)CO)C[C@H]2C)cc1`, for which the protection from depolarization is 12.6% (inactive).

As for `Cc1ccc(S(=O)(=O)N(C)C[C@@H]2Oc3c(NC(=O)Nc4cccc5ccccc45)cccc3C(=O)N([C@@H](C)CO)C[C@H]2C)cc1`, the protection from depolarization was 13.7% (inactive).

Regarding `C[C@@H]1CN([C@H](C)CO)C(=O)c2cccc(NC(=O)Nc3cccc4ccccc34)c2O[C@H]1CN(C)S(=O)(=O)c1ccc(Cl)cc1`, the protection from depolarization was 20.7% (inactive).
